Data from PubChem BioAssay AID180 (DTP/NCI, 2004).

System: BDF1 mice, Adenocarcinoma 755 s.c., tumor weight T/C
Experiment: NCI In Vivo Anticancer Drug Screen. Data for tumor model Adenocarcinoma 755 (subcutaneous) in B6D2F1 (BDF1) mice
Details: endpoint: mean tumor weight, higher = larger tumour
Summary of the method: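 In vivo antitumor screen on a transplantable tumor line. Result equals the measure in compound-treated animals divided by the same measure in vehicle controls.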

[1] = dose: 1500.0 mg/kg/injection, schedule: Q01DX011 (ip), vehicle: other
[2] = dose: 15.0 mg/kg/injection, schedule: Q01DX011 (ip), vehicle: methylcellulose (MC)

N#CCSc1nc(N)nc2nc[nH]c12
T/C (dose: 0.5 mg/kg/injection, schedule: Q01DX011 (ip), vehicle: carboxymethylcellulose (CMC)): 82 % of control | T/C (dose: 1.0 mg/kg/injection, schedule: Q01DX011 (ip), vehicle: carboxymethylcellulose (CMC)): 63 % of control | T/C (dose: 2.0 mg/kg/injection, schedule: Q01DX011 (ip), vehicle: carboxymethylcellulose (CMC)): 70 % of control

[I][Hg][CH2]C1COCC([CH2][Hg][I])O1.[I][Hg][CH2]C1COCC([CH2][Hg][I])O1 (stereo not given)
T/C (dose: 10.0 mg/kg/injection, schedule: Q01DX011 (ip), vehicle: other): 59 % of control | T/C (dose: 20.0 mg/kg/injection, schedule: Q01DX011 (ip), vehicle: other): 63 % of control | T/C (dose: 40.0 mg/kg/injection, schedule: Q01DX011 (ip), vehicle: other): 31 % of control

CC(=O)OCC1OC(n2ncc(=O)[nH]c2=O)C(OC(C)=O)C1OC(C)=O (stereo not given)
T/C (dose: 187.5 mg/kg/injection, schedule: Q01DX011 (ip), vehicle: other): 115 % of control | T/C (dose: 375.0 mg/kg/injection, schedule: Q01DX011 (ip), vehicle: other): 121 % of control | T/C [1]: 43 % of control

CS(=O)(=O)OCC1OC(OCc2ccccc2)CC1O (stereo not given)
T/C (dose: 25.0 mg/kg/injection, schedule: Q01DX011 (ip), vehicle: saline): 102 % of control

COc1ccc(C(=O)OCC2OC(n3cnc4c(=S)nc(N)[nH]c43)C(OC(=O)c3ccc(OC)cc3)C2OC(=O)c2ccc(OC)cc2)cc1 (stereo not given)
T/C (dose: 25.0 mg/kg/injection, schedule: Q01DX011 (ip), vehicle: carboxymethylcellulose (CMC)): 88 % of control | T/C (dose: 50.0 mg/kg/injection, schedule: Q01DX011 (ip), vehicle: carboxymethylcellulose (CMC)): 107 % of control | T/C (dose: 100.0 mg/kg/injection, schedule: Q01DX011 (ip), vehicle: carboxymethylcellulose (CMC)): 48 % of control | T/C (dose: 200.0 mg/kg/injection, schedule: Q01DX011 (ip), vehicle: carboxymethylcellulose (CMC)): 7 % of control

Cc1nc(Cl)c(C#N)c(C(F)(F)F)c1[N+](=O)[O-]
T/C (dose: 30.0 mg/kg/injection, schedule: Q01DX011 (ip), vehicle: carboxymethylcellulose (CMC)): 59 % of control

Cc1cc2nc3c(=O)[nH]c(=O)nc-3n(CCOC(=O)CCC(=O)O)c2cc1C
T/C (dose: 29.46 mg/kg/injection, schedule: Q01DX011 (ip), vehicle: carboxymethylcellulose (CMC)): 88 % of control | T/C (dose: 40.0 mg/kg/injection, schedule: Q01DX011 (ip), vehicle: carboxymethylcellulose (CMC)): 91 % of control | T/C (dose: 58.93 mg/kg/injection, schedule: Q01DX011 (ip), vehicle: carboxymethylcellulose (CMC)): 94 % of control | T/C (dose: 80.0 mg/kg/injection, schedule: Q01DX011 (ip), vehicle: carboxymethylcellulose (CMC)): 122 % of control | T/C (dose: 117.85 mg/kg/injection, schedule: Q01DX011 (ip), vehicle: carboxymethylcellulose (CMC)): 93 % of control | T/C (dose: 126.0 mg/kg/injection, schedule: Q01DX011 (ip), vehicle: carboxymethylcellulose (CMC)): 107 % of control | T/C (dose: 160.0 mg/kg/injection, schedule: Q01DX011 (ip), vehicle: carboxymethylcellulose (CMC)): 59 % of control | T/C (dose: 235.7 mg/kg/injection, schedule: Q01DX011 (ip), vehicle: carboxymethylcellulose (CMC)): 90 % of control | T/C (dose: 252.0 mg/kg/injection, schedule: Q01DX011 (ip), vehicle: carboxymethylcellulose (CMC)): 115 % of control

CCC(=O)NC
T/C (dose: 45.0 mg/kg/injection, schedule: Q01DX011 (ip), vehicle: saline): 107 % of control | T/C (dose: 175.0 mg/kg/injection, schedule: Q01DX011 (ip), vehicle: saline): 81 % of control | T/C (dose: 350.0 mg/kg/injection, schedule: Q01DX011 (ip), vehicle: saline): 118 % of control | T/C (dose: 625.0 mg/kg/injection, schedule: Q#A X022 (ip), vehicle: other): 6 % of control | T/C (dose: 1000.0 mg/kg/injection, schedule: Q01DX011 (ip), vehicle: other): 11 % of control | T/C [1]: 6 % of control | T/C (dose: 1560.0 mg/kg/injection, schedule: Q01DX011 (ip), vehicle: other): 49 % of control | T/C (dose: 1750.0 mg/kg/injection, schedule: Q01DX011 (ip), vehicle: other): 36 % of control

CC(C)CN1CC(C)C(=O)N(c2ccccc2)C1=S (stereo not given)
T/C [2]: 51 % of control | T/C (dose: 31.0 mg/kg/injection, schedule: Q01DX011 (ip), vehicle: methylcellulose (MC)): 89 % of control | T/C (dose: 62.0 mg/kg/injection, schedule: Q01DX011 (ip), vehicle: methylcellulose (MC)): 79 % of control | T/C (dose: 125.0 mg/kg/injection, schedule: Q01DX011 (ip), vehicle: methylcellulose (MC)): 57 % of control

C=CC(O)CN1CC1=C (stereo not given)
T/C (dose: 1.9 mg/kg/injection, schedule: Q01DX011 (ip), vehicle: methylcellulose (MC)): 77 % of control | T/C (dose: 3.75 mg/kg/injection, schedule: Q01DX011 (ip), vehicle: methylcellulose (MC)): 111 % of control | T/C (dose: 7.5 mg/kg/injection, schedule: Q01DX011 (ip), vehicle: methylcellulose (MC)): 73 % of control | T/C [2]: 21 % of control
